Data on eleven compounds can be found in ChEMBL document CHEMBL1909046, “DrugMatrix in vitro pharmacology data”.

Usually IC50 stands for the midpoint of a concentration-inhibition curve.

Assay [1] concerns the target Beta-2 adrenergic receptor (Homo sapiens, UniProt P07550). Put plainly: DRUGMATRIX: Adrenergic beta2 radioligand binding (ligand: [3H] CGP-12177). The assay is classed as cell membranes, CHO, Membrane. The following applies: cho; Not Active = under 50% inhibition at 10 µM.
Assay [2] concerns the target T1, Type-2 angiotensin II receptor (Homo sapiens, UniProt P50052). Note: in other assays of this panel Not Active means under 50% inhibition at 10 µM.
T1 sequence (P50052 whole entry): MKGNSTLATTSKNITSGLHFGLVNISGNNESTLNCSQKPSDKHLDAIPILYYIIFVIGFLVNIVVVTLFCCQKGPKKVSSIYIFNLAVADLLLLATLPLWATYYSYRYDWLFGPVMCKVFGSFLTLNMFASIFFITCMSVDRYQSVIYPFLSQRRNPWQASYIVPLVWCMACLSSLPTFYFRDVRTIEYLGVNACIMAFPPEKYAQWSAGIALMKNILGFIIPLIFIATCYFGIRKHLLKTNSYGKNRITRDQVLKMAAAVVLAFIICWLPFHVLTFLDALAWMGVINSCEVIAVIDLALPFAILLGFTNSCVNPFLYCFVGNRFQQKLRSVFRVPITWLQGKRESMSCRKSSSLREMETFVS
The assay is classed as cell-based. As to conditions: cho-k1.

Assay [3] in a line: DRUGMATRIX: Atrial Natriuretic Factor (ANF) radioligand binding (ligand: [125I] ANF (rat)). The assay is classed as cell membranes, Cavia porcellus, Dunkin-Hartley, Adrenal gland, Membrane. The following applies: Not Active = under 50% inhibition at 10 µM.
The next assay addresses T2, Calcitonin receptor (Homo sapiens, UniProt P30988).
T2 sequence (P30988 whole entry): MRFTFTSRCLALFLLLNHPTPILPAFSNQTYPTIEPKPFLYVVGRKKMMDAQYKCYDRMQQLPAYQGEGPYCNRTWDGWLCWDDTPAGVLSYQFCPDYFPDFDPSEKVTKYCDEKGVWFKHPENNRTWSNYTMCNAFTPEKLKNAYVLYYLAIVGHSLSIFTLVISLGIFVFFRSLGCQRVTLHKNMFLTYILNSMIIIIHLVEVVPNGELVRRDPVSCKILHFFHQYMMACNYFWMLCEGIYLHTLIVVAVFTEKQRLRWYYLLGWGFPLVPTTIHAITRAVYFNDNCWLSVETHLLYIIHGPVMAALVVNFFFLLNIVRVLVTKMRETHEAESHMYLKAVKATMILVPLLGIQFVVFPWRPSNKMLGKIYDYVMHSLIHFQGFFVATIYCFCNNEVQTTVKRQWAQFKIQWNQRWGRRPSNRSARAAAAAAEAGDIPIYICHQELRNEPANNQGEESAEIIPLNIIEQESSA
The assay is classed as cell membranes, Membrane. The following applies: t47d.

The next assay addresses Insulin receptor (Rattus norvegicus, UniProt P15127). The assay is classed as cell membranes, Wistar, Liver, Membrane.
Assay [4] concerns the target T3, Angiotensin-converting enzyme (Oryctolagus cuniculus, UniProt P12822).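 Note: enzymatic inhibition of angiotensin-converting enzyme measured with FAPGG as the substrate; in other assays of this panel Not Active means under 50% inhibition at 10 µM.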
T3 sequence (P12822 whole entry): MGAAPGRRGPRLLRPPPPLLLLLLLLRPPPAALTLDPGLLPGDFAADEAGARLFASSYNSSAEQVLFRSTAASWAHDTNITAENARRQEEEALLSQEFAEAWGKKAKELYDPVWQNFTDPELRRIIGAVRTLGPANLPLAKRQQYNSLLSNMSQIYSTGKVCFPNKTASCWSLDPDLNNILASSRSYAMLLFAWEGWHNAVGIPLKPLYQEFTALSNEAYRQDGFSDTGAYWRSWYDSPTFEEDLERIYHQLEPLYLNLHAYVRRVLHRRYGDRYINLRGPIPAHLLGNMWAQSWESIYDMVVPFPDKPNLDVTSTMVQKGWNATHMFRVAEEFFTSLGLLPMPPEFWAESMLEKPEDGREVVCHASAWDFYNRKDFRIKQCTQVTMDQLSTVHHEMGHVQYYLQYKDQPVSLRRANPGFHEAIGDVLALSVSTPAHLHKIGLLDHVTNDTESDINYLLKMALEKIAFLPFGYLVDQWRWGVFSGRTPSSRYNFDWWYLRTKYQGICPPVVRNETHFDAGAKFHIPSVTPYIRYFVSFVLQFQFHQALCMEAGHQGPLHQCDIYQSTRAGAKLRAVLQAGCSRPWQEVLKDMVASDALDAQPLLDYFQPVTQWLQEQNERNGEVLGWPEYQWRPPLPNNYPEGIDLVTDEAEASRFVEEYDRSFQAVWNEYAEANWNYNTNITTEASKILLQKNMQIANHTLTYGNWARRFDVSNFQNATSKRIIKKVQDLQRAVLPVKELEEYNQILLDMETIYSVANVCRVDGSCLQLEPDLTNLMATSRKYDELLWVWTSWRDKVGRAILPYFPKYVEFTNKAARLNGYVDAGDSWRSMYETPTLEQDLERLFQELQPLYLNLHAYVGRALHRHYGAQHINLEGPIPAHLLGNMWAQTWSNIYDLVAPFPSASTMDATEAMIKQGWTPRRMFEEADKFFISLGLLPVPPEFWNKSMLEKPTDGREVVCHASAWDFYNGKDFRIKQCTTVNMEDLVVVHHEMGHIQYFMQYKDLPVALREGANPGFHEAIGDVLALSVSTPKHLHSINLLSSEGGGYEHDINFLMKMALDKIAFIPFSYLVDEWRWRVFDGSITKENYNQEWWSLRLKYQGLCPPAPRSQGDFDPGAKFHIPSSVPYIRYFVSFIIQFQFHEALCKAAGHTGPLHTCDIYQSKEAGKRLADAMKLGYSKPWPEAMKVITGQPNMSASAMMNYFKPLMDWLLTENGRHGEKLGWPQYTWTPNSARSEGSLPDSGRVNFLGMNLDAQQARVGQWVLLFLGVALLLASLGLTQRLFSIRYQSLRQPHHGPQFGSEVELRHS
Kind of assay: biochemical. The assay is classed as tissue-based, Lung.

A further assay has as its target T4, Estrogen receptor (Homo sapiens, UniProt P03372). Note: in other assays of this panel Not Active means under 50% inhibition at 10 µM.
T4 sequence (P03372 whole entry): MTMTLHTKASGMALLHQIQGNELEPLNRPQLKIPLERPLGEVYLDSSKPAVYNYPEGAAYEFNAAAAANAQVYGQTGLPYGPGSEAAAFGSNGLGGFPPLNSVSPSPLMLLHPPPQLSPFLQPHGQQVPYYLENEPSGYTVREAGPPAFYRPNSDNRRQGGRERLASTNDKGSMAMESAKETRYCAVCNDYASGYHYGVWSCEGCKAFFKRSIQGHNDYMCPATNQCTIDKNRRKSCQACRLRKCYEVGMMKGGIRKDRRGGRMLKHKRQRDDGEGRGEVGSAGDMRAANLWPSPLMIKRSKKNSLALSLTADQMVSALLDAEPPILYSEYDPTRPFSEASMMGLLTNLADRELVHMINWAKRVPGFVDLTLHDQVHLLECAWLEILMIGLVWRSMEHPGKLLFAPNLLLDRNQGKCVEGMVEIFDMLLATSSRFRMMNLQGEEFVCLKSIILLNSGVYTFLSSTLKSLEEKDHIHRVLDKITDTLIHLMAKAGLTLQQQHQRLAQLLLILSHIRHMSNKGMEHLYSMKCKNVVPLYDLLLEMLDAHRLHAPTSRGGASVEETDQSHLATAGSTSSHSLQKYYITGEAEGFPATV
As to conditions: sf9.

Insulin receptor, sequence (P15127 27-759 limits assumed): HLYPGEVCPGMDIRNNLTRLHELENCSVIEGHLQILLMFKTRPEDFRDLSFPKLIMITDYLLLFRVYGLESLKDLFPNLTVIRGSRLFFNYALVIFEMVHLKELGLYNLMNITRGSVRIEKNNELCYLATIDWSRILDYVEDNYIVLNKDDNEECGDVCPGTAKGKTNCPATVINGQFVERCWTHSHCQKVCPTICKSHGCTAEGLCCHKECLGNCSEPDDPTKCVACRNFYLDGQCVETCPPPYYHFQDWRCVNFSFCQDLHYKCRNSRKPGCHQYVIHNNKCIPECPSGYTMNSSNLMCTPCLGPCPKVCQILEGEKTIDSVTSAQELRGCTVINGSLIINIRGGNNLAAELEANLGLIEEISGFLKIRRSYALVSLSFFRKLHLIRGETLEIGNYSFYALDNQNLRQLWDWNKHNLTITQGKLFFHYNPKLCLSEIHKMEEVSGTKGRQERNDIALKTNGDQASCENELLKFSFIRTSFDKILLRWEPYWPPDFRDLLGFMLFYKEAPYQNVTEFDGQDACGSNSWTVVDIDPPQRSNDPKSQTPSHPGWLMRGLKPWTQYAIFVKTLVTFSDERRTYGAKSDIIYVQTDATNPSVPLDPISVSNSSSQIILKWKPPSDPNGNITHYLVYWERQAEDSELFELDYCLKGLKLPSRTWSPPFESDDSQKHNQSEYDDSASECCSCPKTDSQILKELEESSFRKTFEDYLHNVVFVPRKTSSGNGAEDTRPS
Insulin receptor, sequence (P15127 764-1383 limits assumed): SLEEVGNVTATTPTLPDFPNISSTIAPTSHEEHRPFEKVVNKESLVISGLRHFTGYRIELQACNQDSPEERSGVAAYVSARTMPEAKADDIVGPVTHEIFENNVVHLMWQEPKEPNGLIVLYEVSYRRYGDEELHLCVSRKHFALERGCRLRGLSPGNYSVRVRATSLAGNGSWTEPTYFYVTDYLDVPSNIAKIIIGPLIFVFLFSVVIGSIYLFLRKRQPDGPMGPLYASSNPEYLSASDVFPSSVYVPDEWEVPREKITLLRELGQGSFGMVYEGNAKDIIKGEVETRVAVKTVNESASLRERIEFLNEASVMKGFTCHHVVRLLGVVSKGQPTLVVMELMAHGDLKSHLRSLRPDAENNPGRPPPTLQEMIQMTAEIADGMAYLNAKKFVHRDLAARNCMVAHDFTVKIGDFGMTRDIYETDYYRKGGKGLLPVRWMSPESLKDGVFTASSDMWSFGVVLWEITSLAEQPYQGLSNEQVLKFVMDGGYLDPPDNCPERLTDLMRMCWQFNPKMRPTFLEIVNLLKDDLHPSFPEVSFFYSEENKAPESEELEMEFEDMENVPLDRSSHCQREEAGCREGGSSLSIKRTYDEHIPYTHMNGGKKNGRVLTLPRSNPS

Consider `CCC1(c2ccccc2)C(=O)NC(=O)NC1=O` [PHENOBARBITAL], for which the IC50 entry (in assay [1]; in assay [2]; in assay [3]; on Calcitonin receptor; against Insulin receptor; in assay [4]) was “Not Active” throughout. On Estrogen receptor, the IC50 entry is on record as “Not Active”. In addition, the Ki result in assay [3] is “Not Active”.
In the case of CHROMIC CHLORIDE, the IC50 entry (in assay [1]; in assay [2]; in assay [3]; at Calcitonin receptor; at Insulin receptor; in assay [4]) was “Not Active” in each case. Also, the IC50 entry against Estrogen receptor is “Not Active”. In addition, the Ki entry (in assay [1]; in assay [2]; in assay [3]; on Calcitonin receptor; at Insulin receptor; in assay [4]) was “Not Active” in each case. For the same compound, the Ki entry on Estrogen receptor was “Not Active”.
Turning to `O=C(O)CCc1nc(-c2ccccc2)c(-c2ccccc2)o1` [OXAPROZIN], the IC50 result (in assay [1]; in assay [2]; in assay [3]; at Calcitonin receptor; against Insulin receptor; in assay [4]) was “Not Active” in each case. At Estrogen receptor, the IC50 entry is recorded as “Not Active”. In assay [3], the Ki entry is reported as “Not Active”.
In the case of `CCN1C[C@]2(COC)[C@H](O)C[C@H](OC)[C@@]34[C@@H]5C[C@@]6(O)[C@H](OC(=O)c7ccccc7)[C@@H]5[C@@](OC(C)=O)([C@@H]([C@H](OC)[C@H]23)[C@@H]14)[C@@H](O)[C@@H]6OC` [ACONITINE], the IC50 result (in assay [1]; in assay [2]; in assay [3]; on Calcitonin receptor; at Insulin receptor; in assay [4]) was “Not Active” in each case. The IC50 result against Estrogen receptor was “Not Active”. In addition, the Ki result in assay [3] is “Not Active”.
For `Nc1nc(F)nc2c1ncn2[C@@H]1O[C@H](CO)[C@@H](O)[C@@H]1O` [FLUDARABINE], the IC50 result (in assay [1]; in assay [2]; in assay [3]; at Calcitonin receptor; against Insulin receptor; in assay [4]) was “Not Active” in each case. Further, the IC50 entry against Estrogen receptor is listed as “Not Active”. The Ki entry in assay [3] is “Not Active”.
For the compound `O=C1CN(/N=C/c2ccc([N+](=O)[O-])o2)C(=O)N1` [NITROFURANTOIN], the IC50 entry (in assay [1]; in assay [2]; in assay [3]; on Calcitonin receptor; at Insulin receptor; in assay [4]) was “Not Active” each time. Further, at Estrogen receptor, the IC50 entry was “Not Active”. The Ki result in assay [3] is “Not Active”.
For the compound `CC12CCC(CC1=O)C2(C)C` (centres undefined) [CAMPHOR], the IC50 result (in assay [1]; in assay [2]; in assay [3]; at Calcitonin receptor; at Insulin receptor; in assay [4]) was “Not Active” throughout. Further, the IC50 entry against Estrogen receptor is on record as “Not Active”. Moreover, the Ki entry in assay [3] is given as “Not Active”.
As to `Nc1nc(N)c2nc(CNc3ccc(C(=O)N[C@@H](CCC(=O)O)C(=O)O)cc3)cnc2n1` [AMINOPTERIN], the IC50 entry (in assay [1]; in assay [2]; in assay [3]; at Calcitonin receptor; at Insulin receptor; in assay [4]) was “Not Active” in each case. Moreover, the IC50 result against Estrogen receptor was “Not Active”. The Ki entry in assay [3] was “Not Active”.
On to `Cc1c(N)nc([C@H](CC(N)=O)NC[C@H](N)C(N)=O)nc1C(=O)N[C@H](C(=O)N[C@H](C)[C@@H](O)[C@H](C)C(=O)N[C@H](C(=O)NCCc1nc(-c2nc(C(=O)NCCC[S+](C)C)cs2)cs1)[C@@H](C)O)[C@@H](O[C@@H]1O[C@@H](CO)[C@@H](O)[C@H](O)[C@@H]1O[C@H]1O[C@H](CO)[C@@H](O)[C@H](OC(N)=O)[C@@H]1O)c1c[nH]cn1.[Br-]` [BLEOMYCIN A2], for which the IC50 result was “Not Active” in assay [1]; “Not Active” in assay [2]; “Not Active” in assay [3]; “Not Active” at Calcitonin receptor; “Not Active” on Insulin receptor; 588 nM in assay [4] (read-out: IC50). For the same compound, the IC50 result against Estrogen receptor is “Not Active”. In addition, the Ki result in assay [3] is given as “Not Active”.
As for `OC[C@H]1O[C@@H]2O[C@H]3[C@H](O)[C@@H](O)[C@@H](O[C@H]4[C@H](O)[C@@H](O)[C@@H](O[C@H]5[C@H](O)[C@@H](O)[C@@H](O[C@H]6[C@H](O)[C@@H](O)[C@@H](O[C@H]7[C@H](O)[C@@H](O)[C@@H](O[C@H]1[C@H](O)[C@H]2O)O[C@@H]7CO)O[C@@H]6CO)O[C@@H]5CO)O[C@@H]4CO)O[C@@H]3CO` [ALFADEX], the IC50 result (in assay [1]; in assay [2]; in assay [3]; at Calcitonin receptor; on Insulin receptor; in assay [4]) was “Not Active” each time. For the same compound, the IC50 entry on Estrogen receptor is “Not Active”. Besides, in assay [3], the Ki result is on record as “Not Active”.
For `O=C(O)CNCP(=O)(O)O` [GLYPHOSATE], the IC50 entry (in assay [1]; in assay [2]; in assay [3]; on Calcitonin receptor; on Insulin receptor; in assay [4]) was “Not Active” each time. Further, the IC50 entry against Estrogen receptor is recorded as “Not Active”. In addition, in assay [3], the Ki result is reported as “Not Active”.
